Assay results: patent US11639350B2, “Heteroaryldihydropyrimidine derivatives and methods of treating hepatitis B infections” (Janssen Pharmaceutica NV, priority 2018, dated 2023)

How the values were obtained:
HBV = HBV inhibitory activity: HBV DNA in the culture medium of HepG2.2.15 cells by q-PCR; type: cell-based; conditions: HepG2.2.15 cells, 6 days of compound treatment, HBV DNA in culture medium by q-PCR, highest concentration 10 μM; read-out: EC50
Summary of the method: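 HepG2.2.15 cells in 2% FBS medium, 40,000 per well, treated 6 days with compound (medium refreshed once), eight 3-fold dilutions from 10 μM top. HBV DNA extracted from culture medium and quantified by q-PCR; EC50 averaged over repeats. Cytotoxicity run in parallel at 5,000 cells per well, top 100 μM, giving CC50.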

HepG2.2.15 cells = assay: Cytotoxicity determination in HepG2.2.15 cells (CCK-8); type: cell-based; conditions: 6 days of compound treatment, CCK-8, highest concentration 100 μM
Summary of the method: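 HepG2.2.15 cells seeded at 5,000 cells/well in 2% FBS medium, incubated overnight at 37° C., then treated 6 days with compounds (8 points, 3-fold dilutions, top 100 μM), medium refreshed once midway. CCK-8 added for 2.5 h; A450 read against 630 nm reference; CC50 calculated, averaged over repeats.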

| Compound | EC50 (HBV) | CC50 (HepG2.2.15 cells) |
| --- | --- | --- |
| CCOC(=O)C1=C([C@H]2CCC[C@H](C(=O)O)CC2)NC(c2nccs2)=NC1c1ccc(F)c(F)c1Cl (single isomer, unassigned) [Compound 302F, (trans)-4-(−6-(2-Chloro-3,4-difluorophenyl)-5-(ethoxycarbonyl)-2-(thiazol-2-yl)-3,6-dihydropyrimidin-4-yl)cycloheptanecarboxylic Acid] | 0.037 µM | 10.3 µM |
| COC(=O)C1=C(C2CCN(S(=O)(=O)CC(O)CO)CC2)NC(c2nccs2)=NC1c1ccc(F)cc1Cl (single isomer, unassigned) [Compound 305B, Methyl 4-(2-chloro-4-fluorophenyl)-6-(1-((2,3-dihydroxypropyl)sulfonyl)piperidin-4-yl)-2-(thiazol-2-yl)-1,4-dihydropyrimidine-5-carboxylate] | 0.025 µM | 34.5 µM |
| CCOC(=O)C1=C(C2CCN(S(=O)(=O)C3CC(C)(C(=O)O)C3)CC2)NC(c2nccs2)=NC1c1cccc(F)c1Cl (single isomer, unassigned) [Compound 321A, (trans)-3-((4-(6-(2-Chloro-3-fluorophenyl)-5-(ethoxycarbonyl)-2-(thiazol-2-yl)-3,6-dihydropyrimidin-4-yl)piperidin-1-yl)sulfonyl)-1-methylcyclobutanecarboxylic Acid] | 0.012 µM | 17.2 µM |
| CCOC(=O)C1=C(C2CCN(S(=O)(=O)C3CC(C)(C(=O)O)C3)CC2)NC(c2nccs2)=NC1c1cccc(F)c1Cl (single isomer, unassigned) [Compound 321B, (cis)-3-((4-(6-(2-Chloro-3-fluorophenyl)-5-(ethoxycarbonyl)-2-(thiazol-2-yl)-3,6-dihydropyrimidin-4-yl)piperidin-1-yl)sulfonyl)-1-methylcyclobutanecarboxylic Acid] | 0.06 µM | 15.8 µM |
| COC(=O)C1=C(C2CCN(S(=O)(=O)C3CC(C)(C(=O)OC)C3)CC2)NC(c2nccs2)=NC1c1ccc(F)c(F)c1Cl (single isomer, unassigned) [Compound 323C, trans-methyl 4-(2-chloro-3,4-difluorophenyl)-6-(1-((3-(methoxycarbonyl)-3-methylcyclobutyl)sulfonyl)piperidin-4-yl)-2-(thiazol-2-yl)-1,4-dihydropyrimidine-5-carboxylate] | 0.01 µM | 24.1 µM |
| COC(=O)C1=C(C2CCN(S(=O)(=O)C3CC(C)(C(=O)OC)C3)CC2)NC(c2nccs2)=NC1c1ccc(F)c(F)c1Cl (single isomer, unassigned) [Compound 323D, cis-methyl 4-(2-chloro-3,4-difluorophenyl)-6-(1-((3-(methoxycarbonyl)-3-methylcyclobutyl)sulfonyl)piperidin-4-yl)-2-(thiazol-2-yl)-1,4-dihydropyrimidine-5-carboxylate] | 0.03 µM | 28.6 µM |
| COC(=O)C1=C(C2CCN(S(=O)(=O)C3CC(O)C3)CC2)NC(c2nccs2)=NC1c1ccc(F)cc1Cl (single isomer, unassigned) [Compound 335B, Methyl 4-(2-chloro-4-fluorophenyl)-6-(1-((3-hydroxycyclobutyl)sulfonyl)piperidin-4-yl)-2-(thiazol-2-yl)-1,4-dihydropyrimidine-5-carboxylate] | 0.013 µM | 15.2 µM |
| CCOC(=O)C1=C(C2CCN(S(=O)(=O)[C@H]3C[C@H](C(=O)O)C3)CC2)NC(c2nccs2)=NC1c1ccc(F)c(F)c1C (single isomer, unassigned) [Compound 343C, (trans)-3-((4-(6-(3,4-difluoro-2-methylphenyl)-5-(ethoxycarbonyl)-2-(thiazol-2-yl)-3,6-dihydropyrimidin-4-yl)piperidin-1-yl)sulfonyl)cyclobutanecarboxylic Acid] | 0.014 µM | 25.2 µM |
| CCOC(=O)C1=C([C@H]2CC[C@H](C(=O)O)CO2)NC(c2nccs2)=NC1c1ccc(F)cc1Cl (single isomer, unassigned) [Compound 363H, (trans)-6-(6-(2-Chloro-4-fluorophenyl)-5-(ethoxycarbonyl)-2-(thiazol-2-yl)-3,6-dihydropyrimidin-4-yl)tetrahydro-2H-pyran-3-carboxylic Acid] | 0.65 µM | > 100 µM |
| COC(=O)C1=C(C23CC(N(C[C@@H](O)CO)S(C)(=O)=O)(C2)C3)NC(c2nccs2)=NC1c1ccc(F)cc1Cl (single isomer, unassigned) [Compound 376D] | 0.035 µM | 97.3 µM |
| COC(=O)C1=C(C2CCCN(S(C)(=O)=O)CC2)NC(c2nccs2)=NC1c1ccc(F)cc1Cl (single isomer, unassigned) [Compound 383D, Methyl 4-(2-chloro-4-fluorophenyl)-6-(1-(methylsulfonyl)azepan-4-yl)-2-(thiazol-2-yl)-1,4-dihydropyrimidine-5-carboxylate] | 0.148 µM | 31.5 µM |
| COC(=O)C1=C(C2CCN(S(=O)(=O)C3CC(C)(C(=O)O)C3)CC2)NC(c2nccs2)=NC1c1ccc(F)cc1Br (single isomer, unassigned) [Compound 410C, trans-3-((4-(6-(2-Bromo-4-fluorophenyl)-5-(methoxycarbonyl)-2-(thiazol-2-yl)-3,6-dihydropyrimidin-4-yl)piperidin-1-yl)sulfonyl)-1-methylcyclobutanecarboxylic Acid] | 0.016 µM | 24.7 µM |
| COC(=O)C1=C(C2CCN(S(=O)(=O)C3CC(C)(C(=O)O)C3)CC2)NC(c2nccs2)=NC1c1ccc(F)cc1Br (single isomer, unassigned) [Compound 410D, cis-3-((4-(6-(2-Bromo-4-fluorophenyl)-5-(methoxycarbonyl)-2-(thiazol-2-yl)-3,6-dihydropyrimidin-4-yl)piperidin-1-yl)sulfonyl)-1-methylcyclobutanecarboxylic Acid] | 0.043 µM | 23.7 µM |
| CCOC(=O)C1=C(C2CCN(S(=O)(=O)C3CC(C)(C(=O)O)C3)CC2)NC(c2nccs2)=NC1c1cccc(F)c1Br (single isomer, unassigned) [Compound 414C, (trans)-3-((4-(6-(2-Bromo-3-fluorophenyl)-5-(ethoxycarbonyl)-2-(thiazol-2-yl)-3,6-dihydropyrimidin-4-yl)piperidin-1-yl)sulfonyl)-1-methylcyclobutanecarboxylic Acid] | 0.019 µM | 17.3 µM |
| CCOC(=O)C1=C(C2CCN(S(=O)(=O)C3CC(C)(C(=O)O)C3)CC2)NC(c2nccs2)=NC1c1cccc(F)c1Br (single isomer, unassigned) [Compound 414D, (cis)-3-((4-(6-(2-Bromo-3-fluorophenyl)-5-(ethoxycarbonyl)-2-(thiazol-2-yl)-3,6-dihydropyrimidin-4-yl)piperidin-1-yl)sulfonyl)-1-methylcyclobutanecarboxylic Acid] | 0.039 µM | 16.3 µM |
| CCOC(=O)C1=C(C2CCN(S(=O)(=O)C3CC(C)(C(=O)O)C3)CC2)NC(c2nccs2)=NC1c1cccc(F)c1C (single isomer, unassigned) [Compound 429C, (trans)-3-((4-(−5-(Ethoxycarbonyl)-6-(3-fluoro-2-methylphenyl)-2-(thiazol-2-yl)-3,6-dihydropyrimidin-4-yl)piperidin-1-yl)sulfonyl)-1-methylcyclobutanecarboxylic Acid] | 0.066 µM | 25.5 µM |
| CCOC(=O)C1=C(C2CCN(S(=O)(=O)C3CC(C)(C(=O)O)C3)CC2)NC(c2nccs2)=NC1c1cccc(F)c1C (single isomer, unassigned) [Compound 429D, (cis)-3-((4-(−5-(Ethoxycarbonyl)-6-(3-fluoro-2-methylphenyl)-2-(thiazol-2-yl)-3,6-dihydropyrimidin-4-yl)piperidin-1-yl)sulfonyl)-1-methylcyclobutanecarboxylic Acid] | 0.049 µM | 16 µM |
| COC(=O)C1=C(C2CCN(S(=O)(=O)CC3(C)CCC(C(=O)O)CC3)CC2)NC(c2nccs2)=NC1c1ccc(F)cc1Cl (single isomer, unassigned) [Compound 450A, (cis)-4-(((4-(6-(2-Chloro-4-fluorophenyl)-5-(methoxycarbonyl)-2-(thiazol-2-yl)-3,6-dihydropyrimidin-4-yl)piperidin-1-yl)sulfonyl)methyl)-4-methylcyclohexanecarboxylic Acid] | 0.017 µM | 12.8 µM |
| COC(=O)C1=C(C2CCN(S(=O)(=O)CC3(C)CCC(C(=O)O)CC3)CC2)NC(c2nccs2)=NC1c1ccc(F)cc1Cl (single isomer, unassigned) [Compound 450B, (trans)-4-(((4-(6-(2-Chloro-4-fluorophenyl)-5-(methoxycarbonyl)-2-(thiazol-2-yl)-3,6-dihydropyrimidin-4-yl)piperidin-1-yl)sulfonyl)methyl)-4-methylcyclohexanecarboxylic Acid] | 0.007 µM | 14 µM |
| COC(=O)C1=C(C2CCN(S(=O)(=O)CC3(C)CCC(C(=O)O)CC3)CC2)NC(c2nccs2)=NC1c1ccc(F)c(F)c1Cl (single isomer, unassigned) [Compound 452A, (cis)-4-(((4-(6-(2-Chloro-3,4-difluorophenyl)-5-(methoxycarbonyl)-2-(thiazol-2-yl)-3,6-dihydropyrimidin-4-yl)piperidin-1-yl)sulfonyl)methyl)-4-methylcyclohexanecarboxylic Acid] | 0.006 µM | 9.7 µM |
| COC(=O)C1=C(C2CCN(S(=O)(=O)CC3(C)CCC(C(=O)O)CC3)CC2)NC(c2nccs2)=NC1c1ccc(F)c(F)c1Cl (single isomer, unassigned) [Compound 452B, (trans)-4-(((4-(6-(2-Chloro-3,4-difluorophenyl)-5-(methoxycarbonyl)-2-(thiazol-2-yl)-3,6-dihydropyrimidin-4-yl)piperidin-1-yl)sulfonyl)methyl)-4-methylcyclohexanecarboxylic Acid] | 0.005 µM | 7.7 µM |
